Laboratory results from patent US5446020A (Scios Nova Inc., priority 1993, dated 1995).

Assays:
[1] = cited from earlier work
[2] = in vivo; cited from earlier work
[3] = of the potency of native insulin; cited from earlier work
rats = experiment: euglycemic, hyperinsulinemic clamp with 3H-glucose tracer; type: in vivo; conditions: rat clamp
Description: Analogs of the invention can be tested in a euglycemic, hyperinsulinemic rat clamp using ^3 H-glucose as a tracer. In accordance with this technique, glucose is infused to maintain euglycemia. […] Using ^3 H-glucose, glucose utilization by the periphery (Rd) and glucose production by the liver (HGO) can be calculated under steady state conditions using the equation of Steel et al., Am. J. Physiol. (1956) 187:15-24, incorporated herein by reference.
Analogs were tested using the euglycemic, hyperinsulinemic clamp method. […] The exogenous glucose was infused at a rate sufficient to maintain euglycemia for the duration of the experiment. Additionally, [D-3-^3 H] glucose (tracer) is infused to assess glucose metabolism (i.e, glucose turnover). The steady state equation of Steele et al. (Am. J. Physiol. (1956) 187:15-241) was used to calculate hepatic glucose output and the rate of glucose disposal. Under steady state conditions, glucose (mg/ml) and ^3 H-glucose (dpm/ml) levels are constant. Under these conditions the rate of glucose appearance (Ra)=rate of glucose disappearance (Rd). At steady state Ra =Rd. Ra is further defined as the rate of glucose entering the glucose pool (approximately the blood volume and other extra-cellular volume). Ra is equal to the rate at which the liver is making glucose plus the rate of any exogenous glucose infusion. Rd is equal to the rate of glucose leaving the pool.
Three main parameters are used to assess the effects of the analogs. The rate of exogenous infusion (i.e., glucose infusion rate, GIR or M) estimates the potency of analog. […] Finally, hepatic glucose output (HGO), reflects the ability of the analogs to suppress the liver's production of glucose.
Four to five days prior to experimentation, 65 mg/kg of sodium pentobarbital was administered intraperitoneally to anesthetize rats. Catheters were inserted in the right jugular vein and left carotid artery. The catheters were routed subcutaneously to the dorsal region of the neck and exteriorized. […] Blood samples were taken from the jugular vein. […] At 10 minute intervals after starting hormone infusion, 50 μl blood samples were taken to determine the plasma glucose level. During infusion of hormone, a 30% glucose solution was infused at an empirically determined rate to maintain the basal glucose level.
Aliquots of whole blood were obtained at -20, -10 and 0 minutes before the clamp was started, and later at 70, 80, and 90 minutes into the clamp and the plasma glucose level determined. Glucose specific activity at these times was also determined as follows: [formula]
The blood was deproteinized with 10% TCA, centrifuged, and an aliquot of supernatant dried in a vacuum oven to evaporate off ^3 H2 O. The ^3 H-glucose levels in the sample were determined using a liquid scintillation counter. Basal Ra (glucose appearance rate) and clamp Ra were calculated by using steady state glucose specific activity (basal: -20, -10 and 0 minutes; clamp: 70, 80, 90 minutes) and the following equation: [formula] Under basal conditions, at steady state, Ra =Rd and Ra hepatic glucose output. Under clamp conditions, at a steady state, Ra =Rd, however under these conditions, Ra =hepatic glucose output plus exogenous glucose infusion rate. Hepatic glucose output under clamp conditions was determined by subtracting the glucose infusion rate from the calculated Rd.

Substance | potency relative to insulin in vivo ([1]; of the potency of insulin) | in vivo hepatoselectivity, more than that of insulin ([1]; relative to insulin per se) [%] | circulating half-life [2] [min] | potency relative to native insulin when assayed in vitro [3] | GIR (glucose infusion rate) (rats; infusion 41.5 ng/kg/min) [mg/kg/min] | HGO (hepatic glucose output) (rats; infusion 41.5 ng/kg/min) [mg/kg/min] | Rd (rate of glucose disappearance) (rats; infusion 41.5 ng/kg/min) [mg/kg/min] | GIR (glucose infusion rate) (rats; infusion 83 ng/kg/min) [mg/kg/min] | GIR (glucose infusion rate) (rats; infusion 100 ng/kg/min) [mg/kg/min] | HGO (hepatic glucose output) (rats; infusion 100 ng/kg/min) [mg/kg/min] | Rd (rate of glucose disappearance) (rats; infusion 100 ng/kg/min) [mg/kg/min] | GIR (glucose infusion rate) (rats; infusion 166 ng/kg/min) [mg/kg/min] | HGO (hepatic glucose output) (rats; infusion 166 ng/kg/min) [mg/kg/min] | Rd (rate of glucose disappearance) (rats; infusion 166 ng/kg/min) [mg/kg/min] | GIR (glucose infusion rate) (rats; infusion 415 ng/kg/min) [mg/kg/min] | HGO (hepatic glucose output) (rats; infusion 415 ng/kg/min) [mg/kg/min] | Rd (rate of glucose disappearance) (rats; infusion 415 ng/kg/min) [mg/kg/min]
Proinsulin: single chain peptide precursor of insulin synthesized in the islets of Langerhans | about 15% | 50 | 30 | 1-2% | – | – | – | – | – | – | – | – | – | – | – | – | –
Insulin: insulin, the comparator hormone infused in the rat clamp | – | – | 4 | – | 1.7 ± 0.6 | 11.3 ± 0.3 | 13.0 ± 0.3 | 6.9 ± 0.8 | 8.8 ± 1.2 | 9.1 ± 0.7 | 17.8 ± 1.0 | 19.7 ± 0.5 | 6.4 ± 1.1 | 26.1 ± 0.8 | 30.8 ± 1.7 | 3.5 ± 0.7 | 34.3 ± 1.6
